Experimental findings from patent US9686983B2, “Tobacco axillary bud growth inhibitor and method for inhibiting tobacco axillary bud growth” (SDS BIOTECH K. K., priority 2013, dated 2017) are described below.

Series [1] deals with tobacco axillary bud growth. Description: Tobacco axillary bud growth inhibition test, pot plants after top pruning, contact spray. Format: in vivo, Nicotiana tabacum, Tsukuba 1 (flue-cured cultivar). The note with it: single active ingredient, 20 ml sprayed per plant, 28 days after spraying. As for the experimental part: (§1) Tobacco seedlings of Tsukuba 1 (flue-cured cultivar) were transplanted to 1/5000a Wagner pots filled with Kureha garden nursery soil. The plants were grown in a glasshouse, and the floral axis parts were removed at the time of single-flower bloom of tobacco (top pruning).
(§2) Samples were prepared by diluting the above-mentioned formulation containing 10% of chlorthal-dimethyl with water to predetermined concentrations, and adding thereto the formulation containing 70% of decyl alcohol so as to make each sample have a predetermined concentration, and subjected to the test (Examples 1 to 6). Samples were also prepared by diluting the formulation containing 10% of chlorthal-dimethyl with water to predetermined concentrations, and adding thereto the formulation containing 70% of 2-ethyl hexanol so as to make each sample have a predetermined concentration, and subjected to the test (Examples 7 to 12). Samples were also prepared by diluting the formulation containing 10% of chlorthal-dimethyl with water to predetermined concentrations, and adding thereto the formulation containing 70% of […] so as to make each sample have a predetermined concentration, and subjected to the test (Examples 13 to 18). Furthermore, as Comparative Examples, samples were prepared by diluting samples were also prepared by diluting the formulation containing 10% of chlorthal-dimethyl with water to predetermined concentrations (Comparative Examples 1 to 4), by diluting the formulation containing 70% of decyl alcohol with water to predetermined concentrations (Comparative Examples 5 to 7), and by diluting the formulation containing 70% of […] with water to predetermined concentrations (Comparative Examples 8 to 10), and by diluting the formulation containing 70% of […] with water to predetermined concentrations (Comparative Examples 11 to 13) to be subjected to the test. In addition, butralin (tradename: Blue Ribbon) (Comparative Example 14) was subjected to the test.
(§3) With respect to each of the formulations of the inhibitors for tobacco axillary bud growth, 20 ml of the water-diluted solutions of the respective inhibitors were separately sprayed using a contact-type axillary bud inhibitor spraying instrument equipped with a spot exhaust nozzle. One tobacco plant was planted per pot, and the tests were carried out in duplicate.
For the respective cases, states of inhibition of axillary bud growth 28 days after the spraying were investigated together with untreated groups sprayed with no inhibitor, and axillary bud growth inhibition rates were calculated by the following equation. Axillary bud growth inhibition rate=(fresh weight of axillary buds per plant of untreated group−fresh weight of axillary buds per plant of treated group)÷(fresh weight of axillary buds per plant of untreated group)×100 [Math. 1]
It should be noted that the values in parentheses in Table 1 represent predicted values of the effects of inhibiting axillary bud growth of mixed agents (that is, compounds mixed as active ingredients), that is, expected values of additive effects. The expected values were calculated by the following Colby's equation (Colby. S. R.; “Calculating Synergistic and Antagonistic Responses of Herbicide Combinations” Weed, Vol. 15(1), 20-22, 1967). Colby's equation: E=x+y−x·y/100 [Math. 2]
E: Axillary bud growth inhibition rate in the case of using a mixture of active compound A (concentration a) and active compound B (concentration b) (theoretical axillary bud growth inhibition rate)
x: Axillary bud growth inhibition rate in the case of using active compound A at concentration a
y: Axillary bud growth inhibition rate in the case of using active compound B at concentration b
In the case where a measured value determined in the above-mentioned test (axillary bud growth inhibition rate) was larger than the expected value, a synergetic effect was expressed on activity to suppress axillary bud growth.

Series [2] relates to tobacco leaves (first to fourth leaves from the top). Nature of the series: Harmful effect of the inhibitor on tobacco leaves (growth inhibition, gangrene, change in color, deformation). Format: in vivo, Nicotiana tabacum, Tsukuba 1 (flue-cured cultivar). As for the experimental part:
as §1, §2, §3
Further, the presence or absence of the harmful effect of each inhibitor was evaluated in one of the following four categories depending on the degrees of growth inhibition, gangrene, change in color, deformation and the like of leaves (first to fourth leaves from the top).
Large: A severely harmful effect was observed.
Middle: A clearly harmful effect was observed.
Small: A slightly harmful effect was observed.
Absent: No harmful effect was observed.

Consider `COC(=O)c1c(Cl)c(Cl)c(C(=O)OC)c(Cl)c1Cl` [Comparative Ex. 1, dimethyl tetrachloroterephthalate], for which the “Axillary bud growth inhibition (%)” value in series [1] (concentration 0.002 %) is given as 1.1%. Further, in series [2] (in vivo), the Harmful effect result is “None”.

In the case of `COC(=O)c1c(Cl)c(Cl)c(C(=O)OC)c(Cl)c1Cl` [Comparative Ex. 2, dimethyl tetrachloroterephthalate], the “Axillary bud growth inhibition (%)” value in series [1] (concentration 0.005 %) turned out to be 4.2%. The Harmful effect result in series [2] (in vivo) is “None”. Consider `COC(=O)c1c(Cl)c(Cl)c(C(=O)OC)c(Cl)c1Cl` [Comparative Ex. 3, dimethyl tetrachloroterephthalate], for which the “Axillary bud growth inhibition (%)” value in series [1] (concentration 0.01 %) came out at 23.4%. Also, the Harmful effect entry in series [2] (in vivo) is “None”.

For the molecule `COC(=O)c1c(Cl)c(Cl)c(C(=O)OC)c(Cl)c1Cl` [Comparative Ex. 4, dimethyl tetrachloroterephthalate], the “Axillary bud growth inhibition (%)” value in series [1] (concentration 1 %) worked out at 100%. In addition, in series [2] (in vivo), the Harmful effect entry is “None”. As to `CCCCCCCCCCO` [Comparative Ex. 5, Decyl alcohol], in series [1] (concentration 0.7 %), the “Axillary bud growth inhibition (%)” value turned out to be 41.4%. Besides, the Harmful effect result in series [2] (in vivo) is on record as “None”. Consider `CCCCCCCCCCO` [Comparative Ex. 6, Decyl alcohol], for which the “Axillary bud growth inhibition (%)” value in series [1] (concentration 1.4 %) came to 68.6%. Further, in series [2] (in vivo), the Harmful effect entry is “None”.

Regarding `CCCCCCCCCCO` [Comparative Ex. 7, Decyl alcohol], the “Axillary bud growth inhibition (%)” value in series [1] (concentration 2.6 %) was 86.8%. `CCCCC(CC)CO` (stereo not drawn) [Comparative Ex. 8, 2-ethyl hexanol]: the “Axillary bud growth inhibition (%)” value in series [1] (concentration 0.7 %) came out at 33.1%. Further, the Harmful effect result in series [2] (in vivo) is recorded as “None”.

As to `CCCCC(CC)CO` (stereo not drawn) [Comparative Ex. 9, 2-ethyl hexanol], the “Axillary bud growth inhibition (%)” value in series [1] (concentration 1.4 %) stood at 66.6%. Further, the Harmful effect entry in series [2] (in vivo) is “None”. For `CCCCC(CC)CO` (stereo not drawn) [Comparative Ex. 10, 2-ethyl hexanol], the “Axillary bud growth inhibition (%)” value in series [1] (concentration 2.6 %) is 82.1%. With `CC(C)=CCC/C(C)=C/CO` [Comparative Ex. 11, Geraniol], the “Axillary bud growth inhibition (%)” value in series [1] (concentration 0.7 %) was found to be 52.1%. Moreover, the Harmful effect entry in series [2] (single active ingredient, concentration 0.7 %, 20 ml sprayed per plant) is reported as “None”. For the molecule `CC(C)=CCC/C(C)=C/CO` [Comparative Ex. 12, Geraniol], the “Axillary bud growth inhibition (%)” value in series [1] (concentration 1.4 %) turned out to be 72.5%. Also, the Harmful effect result in series [2] (single active ingredient, concentration 1.4 %, 20 ml sprayed per plant) was “None”. On to `CC(C)=CCC/C(C)=C/CO` [Comparative Ex. 13, Geraniol], for which the “Axillary bud growth inhibition (%)” value in series [1] (concentration 2.6 %) stood at 87.9%. Also, the Harmful effect entry in series [2] (single active ingredient, concentration 2.6 %, 20 ml sprayed per plant) is given as “Medium degree”; in series [2] (single active ingredient, concentration 2.6 %, 20 ml sprayed per plant, listed as Comparative Example 13), “small or medium degree”. On to `CCC(C)Nc1c([N+](=O)[O-])cc(C(C)(C)C)cc1[N+](=O)[O-]` (stereo not drawn) [Comparative Ex. 14, Butralin], for which, in series [1] (concentration 0.35 %), the “Axillary bud growth inhibition (%)” value stood at 98.2%. Further, the Harmful effect entry in series [2] (in vivo) is listed as “Small degree”.
